Experimental data: US12258328B2, “6-membered heteroaryl-containing aminopyridine compounds as EGFR inhibitors” (YUHAN CORPORATION, priority 2021, dated 2025)
Like-named read-outs stand apart in the source and are kept apart here.

Experiments:
EGFR L858R/C797S = EGFR L858R/C797S (Homo sapiens, UniProt P00533, C797S/L858R); test: Biochemical EGFR kinase assay (Lance Ultra TR-FRET), double mutant L858R/C797S
Method: (§1) Biochemical EGFR kinase assays were conducted using Lance Ultra time-resolved fluorescence resonance energy transfer (TR-FRET) technology from Perkin-Elmer. Compounds of the invention were initially diluted to 20 mM in 100% DMSO for storage and made into kinase buffer solution to create a compound concentration ranging from 0.003 μM and 10 μM.
(§2) Each kinase reactions were incubated at room temperature for 1 hour and then stopped by the addition of 4 μL of stop solution (10 mM EDTA). The specific Europium-labeled-anti-phosphopeptide antibody (PerkinElmer, AD0069) diluted in LANCE detection buffer was then added to a final concentration of 2 nM. After 60 minutes incubation at room temperature the LANCE signal was measured on an EnVision Multilabel Reader (Perkin-Elmer). Excitation wavelength was set at 320 nm and emission monitored at 615 nm (donor) and 665 nm (acceptor). The IC50 values were determined using GraphPad prism software (GraphPad Software, Inc., San Diego, CA, USA).

EGFR L858R/T790M/C797S = EGFR L858R/T790M/C797S (Homo sapiens, UniProt P00533, C797S/L858R/T790M); test: Biochemical EGFR kinase assay (Lance Ultra TR-FRET), triple mutant L858R/T790M/C797S
Chain of EGFR L858R/T790M/C797S (P00533 25-1210 T790M/C797S/L858R): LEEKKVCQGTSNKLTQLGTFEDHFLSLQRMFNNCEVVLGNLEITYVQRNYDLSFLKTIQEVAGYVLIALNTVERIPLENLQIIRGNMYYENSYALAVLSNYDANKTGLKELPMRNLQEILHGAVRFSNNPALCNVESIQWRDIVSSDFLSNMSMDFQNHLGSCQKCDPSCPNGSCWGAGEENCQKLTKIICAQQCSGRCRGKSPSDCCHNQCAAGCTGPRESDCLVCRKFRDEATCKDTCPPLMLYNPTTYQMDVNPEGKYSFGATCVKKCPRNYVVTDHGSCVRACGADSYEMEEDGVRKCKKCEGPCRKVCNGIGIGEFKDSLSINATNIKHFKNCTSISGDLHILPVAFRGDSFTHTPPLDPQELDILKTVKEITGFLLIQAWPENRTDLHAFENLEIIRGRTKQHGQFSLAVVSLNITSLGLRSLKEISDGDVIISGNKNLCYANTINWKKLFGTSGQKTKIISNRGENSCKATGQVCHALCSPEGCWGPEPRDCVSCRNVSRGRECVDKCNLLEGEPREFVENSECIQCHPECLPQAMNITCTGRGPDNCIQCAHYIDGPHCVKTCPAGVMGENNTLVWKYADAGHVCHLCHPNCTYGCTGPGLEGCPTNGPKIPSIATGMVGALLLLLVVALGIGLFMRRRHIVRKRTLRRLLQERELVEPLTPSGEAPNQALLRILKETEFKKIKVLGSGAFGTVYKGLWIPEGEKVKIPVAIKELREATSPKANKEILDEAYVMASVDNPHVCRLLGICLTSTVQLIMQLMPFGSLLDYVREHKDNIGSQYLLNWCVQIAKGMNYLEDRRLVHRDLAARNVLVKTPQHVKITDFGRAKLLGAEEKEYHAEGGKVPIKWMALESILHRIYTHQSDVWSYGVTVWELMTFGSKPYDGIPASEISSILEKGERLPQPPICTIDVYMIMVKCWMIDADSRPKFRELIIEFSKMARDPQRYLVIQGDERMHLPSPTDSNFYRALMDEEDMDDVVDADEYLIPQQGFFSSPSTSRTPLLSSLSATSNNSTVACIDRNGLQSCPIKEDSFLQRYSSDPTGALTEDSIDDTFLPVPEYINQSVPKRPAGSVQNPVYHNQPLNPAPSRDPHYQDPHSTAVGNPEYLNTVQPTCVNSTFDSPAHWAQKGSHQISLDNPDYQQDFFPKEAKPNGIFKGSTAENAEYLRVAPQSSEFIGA
Method: as §1, §2

EGFR wildtype = EGFR wildtype (Homo sapiens, UniProt P00533); test: Biochemical EGFR kinase assay (Lance Ultra TR-FRET), wildtype
Chain of EGFR wildtype (P00533 25-1210): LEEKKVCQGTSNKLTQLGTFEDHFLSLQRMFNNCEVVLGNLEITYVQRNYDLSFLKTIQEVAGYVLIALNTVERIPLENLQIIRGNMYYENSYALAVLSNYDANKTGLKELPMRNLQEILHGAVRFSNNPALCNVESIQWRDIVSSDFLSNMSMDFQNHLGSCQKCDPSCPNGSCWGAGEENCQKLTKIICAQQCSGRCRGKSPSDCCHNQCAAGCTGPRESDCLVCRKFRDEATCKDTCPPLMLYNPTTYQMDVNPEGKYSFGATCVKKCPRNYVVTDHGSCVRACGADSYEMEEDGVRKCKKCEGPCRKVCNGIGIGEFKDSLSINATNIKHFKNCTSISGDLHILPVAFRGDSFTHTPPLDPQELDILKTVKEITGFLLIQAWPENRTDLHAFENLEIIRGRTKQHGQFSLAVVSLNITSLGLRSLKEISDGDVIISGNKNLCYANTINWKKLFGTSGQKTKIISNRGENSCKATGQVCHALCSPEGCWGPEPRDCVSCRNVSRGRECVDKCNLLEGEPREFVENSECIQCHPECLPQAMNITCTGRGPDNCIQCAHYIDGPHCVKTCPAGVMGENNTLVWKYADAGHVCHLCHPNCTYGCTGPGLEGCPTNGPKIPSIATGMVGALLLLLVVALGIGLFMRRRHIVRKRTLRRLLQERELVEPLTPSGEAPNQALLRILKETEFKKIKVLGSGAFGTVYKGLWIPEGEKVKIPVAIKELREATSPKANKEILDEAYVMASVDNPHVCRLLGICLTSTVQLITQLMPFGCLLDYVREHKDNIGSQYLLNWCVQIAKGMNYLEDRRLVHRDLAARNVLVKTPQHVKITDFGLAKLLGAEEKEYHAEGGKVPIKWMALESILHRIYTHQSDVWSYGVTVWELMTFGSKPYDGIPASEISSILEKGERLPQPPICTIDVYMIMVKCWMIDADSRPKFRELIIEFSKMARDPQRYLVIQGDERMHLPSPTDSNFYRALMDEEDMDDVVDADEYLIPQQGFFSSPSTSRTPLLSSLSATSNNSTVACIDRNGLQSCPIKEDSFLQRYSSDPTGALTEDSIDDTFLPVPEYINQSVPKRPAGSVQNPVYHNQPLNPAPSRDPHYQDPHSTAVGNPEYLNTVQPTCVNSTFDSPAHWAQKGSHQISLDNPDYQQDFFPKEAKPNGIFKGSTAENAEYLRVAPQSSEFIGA
Method: as §1, §2

EGFR del19/T790M/C797S = EGFR del19/T790M/C797S (Homo sapiens, UniProt P00533, C797S/DEL746-750/T790M); test: Biochemical EGFR kinase assay (Lance Ultra TR-FRET), triple mutant del19/T790M/C797S
Method: as §1, §2

EGFR del19/C797S = EGFR del19/C797S (Homo sapiens, UniProt P00533, C797S/DEL746-750); test: Biochemical EGFR kinase assay (Lance Ultra TR-FRET), double mutant del19/C797S
Chain of EGFR del19/C797S (P00533 with tags, fused parts or gaps DEL746-750/C797S): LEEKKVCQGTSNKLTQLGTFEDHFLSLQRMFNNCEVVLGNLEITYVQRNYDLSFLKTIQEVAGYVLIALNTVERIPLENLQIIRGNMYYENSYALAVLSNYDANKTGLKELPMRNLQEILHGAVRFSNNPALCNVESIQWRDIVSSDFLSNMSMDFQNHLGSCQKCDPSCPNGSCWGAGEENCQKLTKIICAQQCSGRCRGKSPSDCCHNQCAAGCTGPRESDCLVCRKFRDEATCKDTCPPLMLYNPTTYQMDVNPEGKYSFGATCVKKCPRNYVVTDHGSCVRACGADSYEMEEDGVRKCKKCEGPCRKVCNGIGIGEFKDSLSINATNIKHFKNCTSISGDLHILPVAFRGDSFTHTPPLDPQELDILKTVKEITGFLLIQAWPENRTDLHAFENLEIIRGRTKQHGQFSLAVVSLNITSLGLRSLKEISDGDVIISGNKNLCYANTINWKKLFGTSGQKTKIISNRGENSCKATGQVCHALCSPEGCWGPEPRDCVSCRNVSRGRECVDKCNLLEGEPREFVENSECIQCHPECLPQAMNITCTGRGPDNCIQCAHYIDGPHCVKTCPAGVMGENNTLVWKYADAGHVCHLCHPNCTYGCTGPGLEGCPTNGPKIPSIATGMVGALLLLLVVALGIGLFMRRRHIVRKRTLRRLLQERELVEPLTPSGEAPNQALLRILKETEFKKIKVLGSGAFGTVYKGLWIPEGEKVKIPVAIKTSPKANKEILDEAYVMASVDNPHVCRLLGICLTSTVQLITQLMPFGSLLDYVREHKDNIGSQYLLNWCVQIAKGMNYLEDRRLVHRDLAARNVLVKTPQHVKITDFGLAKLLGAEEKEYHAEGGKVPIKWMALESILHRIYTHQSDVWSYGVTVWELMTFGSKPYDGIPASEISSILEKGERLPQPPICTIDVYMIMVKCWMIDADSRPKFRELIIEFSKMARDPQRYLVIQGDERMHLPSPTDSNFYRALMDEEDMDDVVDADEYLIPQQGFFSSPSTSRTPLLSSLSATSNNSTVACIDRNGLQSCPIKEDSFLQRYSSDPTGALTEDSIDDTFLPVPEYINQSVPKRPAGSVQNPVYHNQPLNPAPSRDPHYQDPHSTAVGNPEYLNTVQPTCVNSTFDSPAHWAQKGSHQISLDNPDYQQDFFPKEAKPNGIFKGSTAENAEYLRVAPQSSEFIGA
Method: as §1, §2

[1] = IC50 L858R/C797S (nM) 100 μM ATP, 100 μM ATP
[2] = Km ATP, read-out: IC50 L858R/C797S (nM) Km ATP
[3] = IC50 L858R/T790M/C797S (nM) 100 μM ATP, 100 μM ATP
[4] = Km ATP, read-out: IC50 L858R/T790M/C797S (nM) Km ATP
[5] = IC50 WT (nM) 100 μM ATP, 100 μM ATP
[6] = Km ATP, read-out: IC50 WT (nM) Km ATP
[7] = IC50 del19/T790M/C797S (nM) 100 μM ATP, 100 μM ATP
[8] = Km ATP, read-out: IC50 del19/T790M/C797S (nM) Km ATP
[9] = IC50 del19/C797S (nM) 100 μM ATP, 100 μM ATP
[10] = Km ATP, read-out: IC50 del19/C797S (nM) Km ATP
[11] = ATP at Km, read-out: IC50 L858R/T790M/C797S, Km ATP
[12] = ATP at Km, read-out: IC50 WT, Km ATP
[13] = ATP at Km, read-out: IC50 del19/T790M/C797S, Km ATP
[14] = ATP at Km, read-out: IC50 del19/C797S, Km ATP
[15] = ATP at Km, read-out: IC50 L858R/C797S, Km ATP
[16] = IC50 del19/T790M/C797S, 100 μM ATP

Chain of EGFR L858R/C797S (P00533 25-1210 C797S/L858R): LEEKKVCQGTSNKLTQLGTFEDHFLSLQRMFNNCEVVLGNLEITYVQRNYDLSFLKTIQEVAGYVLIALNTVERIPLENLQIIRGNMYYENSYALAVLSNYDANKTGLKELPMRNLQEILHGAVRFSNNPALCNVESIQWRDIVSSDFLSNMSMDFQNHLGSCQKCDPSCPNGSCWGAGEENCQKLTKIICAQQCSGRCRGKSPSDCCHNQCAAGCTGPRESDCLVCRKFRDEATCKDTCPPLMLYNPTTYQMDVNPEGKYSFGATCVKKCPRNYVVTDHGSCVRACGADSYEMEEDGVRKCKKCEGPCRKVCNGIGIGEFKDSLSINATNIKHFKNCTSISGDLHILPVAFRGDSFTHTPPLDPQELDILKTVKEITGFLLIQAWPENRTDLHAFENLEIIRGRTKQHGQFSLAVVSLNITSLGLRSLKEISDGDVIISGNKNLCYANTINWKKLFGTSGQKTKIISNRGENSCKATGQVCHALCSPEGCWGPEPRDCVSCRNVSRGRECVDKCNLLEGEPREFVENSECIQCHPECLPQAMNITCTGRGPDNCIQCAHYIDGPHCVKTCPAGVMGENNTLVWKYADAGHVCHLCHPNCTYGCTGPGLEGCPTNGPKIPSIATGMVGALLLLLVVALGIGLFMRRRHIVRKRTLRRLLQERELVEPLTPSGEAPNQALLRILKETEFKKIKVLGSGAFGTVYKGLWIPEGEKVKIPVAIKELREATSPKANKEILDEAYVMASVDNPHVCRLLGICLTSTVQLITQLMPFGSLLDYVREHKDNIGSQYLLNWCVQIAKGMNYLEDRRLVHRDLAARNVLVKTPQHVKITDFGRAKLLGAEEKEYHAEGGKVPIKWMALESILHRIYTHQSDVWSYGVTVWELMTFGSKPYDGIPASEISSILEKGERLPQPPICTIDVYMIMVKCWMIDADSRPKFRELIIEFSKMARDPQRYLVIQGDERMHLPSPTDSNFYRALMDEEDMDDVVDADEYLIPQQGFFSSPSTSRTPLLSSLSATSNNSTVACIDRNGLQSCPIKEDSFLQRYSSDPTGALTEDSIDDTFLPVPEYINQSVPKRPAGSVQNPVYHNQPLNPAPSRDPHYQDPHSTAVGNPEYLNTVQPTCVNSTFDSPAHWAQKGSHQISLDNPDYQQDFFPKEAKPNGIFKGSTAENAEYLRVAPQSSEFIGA

SMILES | IC50 (EGFR L858R/C797S; [1]) | IC50 (EGFR L858R/C797S; [2]) | IC50 (EGFR L858R/T790M/C797S; [3]) | IC50 (EGFR L858R/T790M/C797S; [4]) | IC50 (EGFR wildtype; [5]) | IC50 (EGFR wildtype; [6]) | IC50 (EGFR del19/T790M/C797S; [7]) | IC50 (EGFR del19/T790M/C797S; [8]) | IC50 (EGFR del19/C797S; [10]) | IC50 (EGFR del19/T790M/C797S; [13]) | IC50 (EGFR L858R/C797S; [15]) | also measured
CN1CCN(Cc2ccc(-c3cnc(Nc4ccnc(-c5cnn(S(=O)(=O)C6CC6)c5)n4)cc3N3CCC(C)(CO)CC3)nc2)CC1 [Example 1, (1-(6′-((2-(1-(Cyclopropylsulfonyl)-1H-pyrazol-4-yl)pyrimidin-4-yl)amino)-5-((4-methylpiperazin-1-yl)methyl)-[2,3′-bipyridin]-4′-yl)-4-methylpiperidin-4-yl)methanol] | 223 nM | 10.5 nM | 1.3 nM | 0.4 nM | > 10000 nM | 212 nM | 0.8 nM | 1.2 nM | 37.5 nM | – | – | IC50 (EGFR del19/C797S; [9]): 52.3 nM
C[C@]1(O)CC[C@@H](Nc2cc(Nc3ccnc(-c4cnn(S(=O)(=O)C5CC5)c4)n3)ncc2-c2ccc(F)cn2)CC1 [Example 6, (1s,4s)-4-((6′-((2-(1-(Cyclopropylsulfonyl)-1H-pyrazol-4-yl)pyrimidin-4-yl)amino)-5-fluoro-[2,3′-bipyridin]-4′-yl)amino)-1-methylcyclohexan-1-ol] | 6.5 nM | 0.3 nM | 0.1 nM | – | > 10000 nM | – | 0.1 nM | 0.2 nM | 0.2 nM | – | – | IC50 (EGFR del19/C797S; [9]): 0.4 nM
C[C@]1(O)CC[C@@H](Nc2cc(Nc3ccnc(-c4cnn(S(=O)(=O)C5CC5)c4)n3)ncc2-c2ccc(C#N)cn2)CC1 [Example 7, 6′-((2-(1-(Cyclopropylsulfonyl)-1H-pyrazol-4-yl)pyrimidin-4-yl)amino)-4′-(((1s,4s)-4-hydroxy-4-methylcyclohexyl)amino)-[2,3′-bipyridine]-5-carbonitrile] | 12.4 nM | 0.6 nM | 0.2 nM | 0.1 nM | > 10000 nM | 3 nM | 0.2 nM | 0.4 nM | 0.5 nM | – | – | –
Cc1ccc(-c2cnc(Nc3ccnc(-c4cnn(S(=O)(=O)C5CC5)c4)n3)cc2N[C@H]2CC[C@@](C)(O)CC2)nc1 [Example 8, (1s,4s)-4-((6′-((2-(1-(Cyclopropylsulfonyl)-1H-pyrazol-4-yl)pyrimidin-4-yl)amino)-5-methyl-[2,3′-bipyridin]-4′-yl)amino)-1-methylcyclohexan-1-ol] | 6.3 nM | 0.4 nM | 0.2 nM | 0.1 nM | 8890 nM | 1 nM | 0.2 nM | 0.4 nM | 0.4 nM | – | – | IC50 (EGFR del19/C797S; [9]): 0.7 nM
COc1ccc(-c2cnc(Nc3ccnc(-c4cnn(S(=O)(=O)C5CC5)c4)n3)cc2N[C@H]2CC[C@@](C)(O)CC2)nn1 [Example 53, (1s,4s)-4-((2-((2-(1-(Cyclopropylsulfonyl)-1H-pyrazol-4-yl)pyrimidin-4-yl)amino)-5-(6-methoxypyridazin-3-yl)pyridin-4-yl)amino)-1-methylcyclohexan-1-ol] | 1 nM | 1 nM | 0.5 nM | 0.1 nM | > 10000 nM | 6.9 nM | 0.4 nM | 0.4 nM | – | – | – | –
C[C@]1(O)CC[C@@H](Nc2cc(Nc3ccnc(-c4cnn(S(=O)(=O)C5CC5)c4)n3)ncc2-c2cnc(OC(F)F)cn2)CC1 [Example 128, (1s,4s)-4-((2-((2-(1-(Cyclopropylsulfonyl)-1H-pyrazol-4-yl)pyrimidin-4-yl)amino)-5-(5-(difluoromethoxy)pyrazin-2-yl)pyridin-4-yl)amino)-1-methylcyclohexan-1-ol] | – | 95.8 nM | – | 0.5 nM | – | > 10000 nM | – | – | 41.2 nM | – | – | –
CN1CCC(Oc2cnc(-c3cnc(Nc4ccnc(-c5cnn(S(=O)(=O)C6CC6)c5)n4)cc3N[C@H]3CC[C@@](C)(O)CC3)cn2)CC1 [Example 145, (1s,4s)-4-((2-((2-(1-(Cyclopropylsulfonyl)-1H-pyrazol-4-yl)pyrimidin-4-yl)amino)-5-(5-((1-methylpiperidin-4-yl)oxy)pyrazin-2-yl)pyridin-4-yl)amino)-1-methylcyclohexan-1-ol] | – | 0.1 nM | – | 0.03 nM | – | – | – | 0.1 nM | 0.3 nM | – | – | –
CC(C)(O)c1ccc(-c2cnc(Nc3ccnc(-c4cnn(S(=O)(=O)C5CC5)c4)n3)cc2NC2CCN(CCF)CC2)nc1 [Example 176, 2-(6′-((2-(1-(Cyclopropylsulfonyl)-1H-pyrazol-4-yl)pyrimidin-4-yl)amino)-4′-((1-(2-fluoroethyl)piperidin-4-yl)amino)-[2,3′-bipyridin]-5-yl)propan-2-ol] | – | – | – | – | – | – | – | – | – | 0.2 nM | – | IC50 (EGFR L858R/T790M/C797S; [11]): 0.4 nM; IC50 (EGFR wildtype; [12]): 43.4 nM; IC50 (EGFR del19/C797S; [14]): 5.5 nM
C[C@]1(O)CC[C@@H](Nc2cc(Nc3ccnc(-c4cnn(S(=O)(=O)C5CC5)c4)n3)ncc2-c2ccc(S(=O)(=O)N3CCOCC3)cn2)CC1 [Example 182, (1s,4s)-4-((6′-((2-(1-(Cyclopropylsulfonyl)-1H-pyrazol-4-yl)pyrimidin-4-yl)amino)-5-(morpholinosulfonyl)-[2,3′-bipyridin]-4′-yl)amino)-1-methylcyclohexan-1-ol] | – | – | – | – | – | – | – | – | – | 2.9 nM | 0.9 nM | IC50 (EGFR L858R/C797S; IC50 L858R/C797S, 100 μM ATP): 3.5 nM; IC50 (EGFR wildtype; IC50 WT, 100 μM ATP): > 10000 nM; IC50 (EGFR del19/T790M/C797S; [16]): 6.4 nM; IC50 (EGFR del19/C797S; IC50 del19/C797S, 100 μM ATP): 3.7 nM
CC(C)(O)[C@H]1CC[C@@H](Nc2cc(Nc3ccnc(-c4cnn(S(=O)(=O)C5CC5)c4)n3)ncc2-c2ccc(OCCO)cn2)CC1 [Example 207, 2-((1s,4s)-4-((6′-((2-(1-(Cyclopropylsulfonyl)-1H-pyrazol-4-yl)pyrimidin-4-yl)amino)-5-(2-hydroxyethoxy)-[2,3′-bipyridin]-4′-yl)amino)cyclohexyl)propan-2-ol] | – | – | – | – | – | – | – | – | – | 1.3 nM | 1 nM | IC50 (EGFR L858R/C797S; IC50 L858R/C797S, 100 μM ATP): 14 nM; IC50 (EGFR L858R/T790M/C797S; [11]): 0.3 nM; IC50 (EGFR L858R/T790M/C797S; IC50 L858R/T790M/C797S, 100 μM ATP): 0.8 nM; IC50 (EGFR wildtype; [12]): 3.8 nM; IC50 (EGFR wildtype; IC50 WT, 100 μM ATP): 1790 nM; IC50 (EGFR del19/T790M/C797S; [16]): 1.6 nM
CC(C)Nc1cc(Nc2ccnc(-c3cnn(S(=O)(=O)C4CC4)c3)n2)ncc1-c1ccc(C(C)(O)C(F)(F)F)cn1 (stereo not shown) [Example 295, 2-(6′-((2-(1-(Cyclopropylsulfonyl)-1H-pyrazol-4-yl)pyrimidin-4-yl)amino)-4′-(isopropylamino)-[2,3′-bipyridin]-5-yl)-1,1,1-trifluoropropan-2-ol] | – | – | – | – | – | – | – | – | – | 10.4 nM | 26.5 nM | IC50 (EGFR wildtype; [12]): 44.7 nM; IC50 (EGFR del19/C797S; [14]): 49.2 nM
CN1CCC(Oc2ccc(-c3cnc(Nc4nc(-c5cnn(S(=O)(=O)C6CC6)c5)ncc4F)cc3N[C@H]3CC[C@@](C)(O)CC3)nc2)CC1 [Example 300, (1s,4s)-4-((6′-((2-(1-(Cyclopropylsulfonyl)-1H-pyrazol-4-yl)-5-fluoropyrimidin-4-yl)amino)-5-((1-methylpiperidin-4-yl)oxy)-[2,3′-bipyridin]-4′-yl)amino)-1-methylcyclohexan-1-ol] | – | – | – | – | – | – | – | – | – | 0.3 nM | 0.2 nM | IC50 (EGFR L858R/T790M/C797S; [11]): 0.1 nM; IC50 (EGFR del19/C797S; [14]): 0.4 nM
